According to ChEMBL document CHEMBL6153110, “Peptide Double-Stapling and Arginine N-Glycosylation Triggered the Development of Therapeutic Antimicrobial Peptides Capable of Killing Drug-Resistant Bacteria in Mice” (J Med Chem, 2025):
Converted amounts (≈) assume the structure as drawn. The source made the active and inactive calls. The calls are words filed in the database; no cut-off is given here. Positions of bridges follow the written chain, without caps; N, C: chain ends. Non-standard residues stand in square brackets, D forms with d. Residues, ends and D or L forms follow the SMILES beside them. Arg(Nω-βLac) = N=C(NCCC[C@H](N)C(=O)O)N[C@@H]1O[C@H](CO)[C@@H](O[C@@H]2O[C@H](CO)[C@H](O)[C@H](O)[C@H]2O)[C@H](O)[C@H]1O; S5 = C=CCCC[C@](C)(N)C(=O)O

Legend:
Staphylococcus aureus [1] = assay: In vivo antibacterial activity against methicillin-resistant Staphylococcus aureus ATCC 43300 infected locally in full thickness skin wound mouse model assessed as reduction in bacterial load in skin wound at 1 mg/kg treated with absorbable gelatin sponge measured after 3 days; assay type: functional, organism-based; conditions: time 3.0 day
Klebsiella pneumoniae [2] = assay: Antimicrobial activity against Klebsiella pneumoniae ATCC 13883 assessed as growth inhibition measured after 8 hrs incubation by standard broth dilution assay; assay type: functional
Klebsiella pneumoniae [3] = assay: (§1) In vivo antibacterial activity against Klebsiella pneumoniae ATCC 13883 induced bacterial pneumonia mouse model assessed as reduction in bacterial load in lungs at 4 mg/kg, injected into trachea after 24 hrs of infection measured after 3 to 7 days; assay type: functional, organism-based
Staphylococcus aureus [4] = assay: In vivo antibacterial activity against methicillin-resistant Staphylococcus aureus ATCC 43300 infected locally in full thickness skin wound mouse model assessed as reduced skin damage by promoting wound healing at 4 mg/kg treated with absorbable gelatin sponge measured on early healing stage; assay type: functional, organism-based; conditions: route id
Klebsiella pneumoniae [5] = assay: In vivo antibacterial activity against Klebsiella pneumoniae ATCC 13883 induced bacterial pneumonia mouse model assessed as reduction in bacterial infection induced weight loss at 1 mg/kg, injected into trachea after 24 hrs of infection measured after 3 to 7 days; assay type: functional, organism-based
Staphylococcus aureus [6] = assay: In vivo antibacterial activity against methicillin-resistant Staphylococcus aureus ATCC 43300 infected locally in full thickness skin wound mouse model assessed as reduction in bacterial load in skin wound at 4 mg/kg treated with absorbable gelatin sponge measured after 7 days; assay type: functional, organism-based; conditions: time 7.0 day
Klebsiella pneumoniae [7] = assay: In vivo antibacterial activity against Klebsiella pneumoniae ATCC 13883 induced bacterial pneumonia mouse model assessed as reduction in bacterial infection induced weight loss at 4 mg/kg, injected into trachea after 24 hrs of infection measured after 3 to 7 days; assay type: functional, organism-based
Klebsiella pneumoniae [8] = assay: (§2) In vivo antibacterial activity against Klebsiella pneumoniae ATCC 13883 induced bacterial pneumonia mouse model assessed as reduction in bacterial load in lungs at 1 mg/kg, injected into trachea after 24 hrs of infection measured after 3 to 7 days; assay type: functional, organism-based
Staphylococcus aureus [9] = assay: Antimicrobial activity against methicillin-resistant Staphylococcus aureus ATCC 43300 assessed as growth inhibition measured after 8 hrs incubation by standard broth dilution assay; assay type: functional
Klebsiella pneumoniae [10] = assay: as §1, with “infection induced inflammatory response” for “load”, “lungs by measuring large number of alveoli” for “lungs”, “days by H and E staining based assay” for “days”; assay type: functional, organism-based
Cell membrane [11] = assay: Induction of cell membrane damage in methicillin-resistant Staphylococcus aureus ATCC 43300 assessed as significant plasma membrane rupture, […], and cytoplasmic leakage at MIC measured after 1 hr incubation by Transmission electron microscopy; assay type: subcellular
Cell membrane [12] = assay: Binding affinity to Klebsiella pneumoniae ATCC 13883 cell membrane treated with FITC labelled peptides at MIC measured after 1.5 hr by CLSM imaging analysis; assay type: subcellular
Pseudomonas aeruginosa = assay: Antimicrobial activity against Pseudomonas aeruginosa ATCC 27853 assessed as growth inhibition measured after 8 hrs incubation by standard broth dilution assay; assay type: functional
Klebsiella pneumoniae [13] = assay: In vivo antibacterial activity against Klebsiella pneumoniae ATCC 13883 induced bacterial pneumonia mouse model assessed as increase in survival of mouse at 1 mg/kg, injected into trachea after 24 hrs of infection measured after 3 to 7 days; assay type: functional, organism-based
Klebsiella pneumoniae [14] = assay: In vivo antibacterial activity against Klebsiella pneumoniae ATCC 13883 induced bacterial pneumonia mouse model assessed as reduction in bacterial infection induced IL-1beta level in lung tissue at 4 mg/kg, injected into trachea after 24 hrs of infection measured after 3 to 7 days; assay type: functional, organism-based
Klebsiella pneumoniae [15] = assay: In vivo antibacterial activity against Klebsiella pneumoniae ATCC 13883 induced bacterial pneumonia mouse model assessed as reduction in bacterial infection induced TNF-alpha mRNA expression in lung tissue at 4 mg/kg, injected into trachea after 24 hrs of infection measured after 3 to 7 days; assay type: functional, organism-based
Staphylococcus aureus [16] = assay: In vivo antibacterial activity against methicillin-resistant Staphylococcus aureus ATCC 43300 infected locally in full thickness skin wound mouse model assessed as reduction in bacterial load in skin wound at 4 mg/kg treated with absorbable gelatin sponge measured after 3 days; assay type: functional, organism-based; conditions: time 3.0 day
[17] = Toxicity in mouse assessed as inflammatory infiltration at 40 mg/kg, sc by H and E staining based assay; assay type: organism-based; conditions: in vivo
Cell membrane [18] = assay: Induction of cell membrane damage in Klebsiella pneumoniae ATCC 13883 assessed as corrugation, blebbing, breakage, and fragmentation at MIC measured after 1 hr incubation by Scanning electron microscopy; assay type: subcellular
Klebsiella pneumoniae [19] = assay: In vivo antibacterial activity against Klebsiella pneumoniae ATCC 13883 induced bacterial pneumonia mouse model assessed as reduction in bacterial infection induced IL-6 level in lung tissue at 4 mg/kg, injected into trachea after 24 hrs of infection measured after 3 to 7 days; assay type: functional, organism-based
Klebsiella pneumoniae [20] = assay: In vivo antibacterial activity against Klebsiella pneumoniae ATCC 13883 induced bacterial pneumonia mouse model assessed as increase in survival of mouse at 4 mg/kg, injected into trachea after 24 hrs of infection measured after 3 to 7 days; assay type: functional, organism-based
Klebsiella pneumoniae [21] = assay: In vivo antibacterial activity against Klebsiella pneumoniae ATCC 13883 induced bacterial pneumonia mouse model assessed as reduction in bacterial infection induced TNF-alpha level in lung tissue at 4 mg/kg, injected into trachea after 24 hrs of infection measured after 3 to 7 days; assay type: functional, organism-based
Staphylococcus aureus [22] = assay: In vivo antibacterial activity against methicillin-resistant Staphylococcus aureus ATCC 43300 infected locally in full thickness skin wound mouse model assessed as clean and less exudate at 1 mg/kg treated with absorbable gelatin sponge measured on early healing stage; assay type: functional, organism-based; conditions: route id
Cell membrane [23] = assay: Induction of cell membrane damage in methicillin-resistant Staphylococcus aureus ATCC 43300 assessed as increase in red fluorescence at MIC measured after 1 hr incubation by PI based assay; assay type: subcellular
Cell membrane [24] = assay: Induction of cell membrane damage in Klebsiella pneumoniae ATCC 13883 assessed as increase in red fluorescence at MIC measured after 1 hr incubation by PI based confocal microscopy; assay type: subcellular
Klebsiella pneumoniae [25] = assay: as §2, with “infection induced inflammatory response” for “load”, “lungs by measuring large number of alveoli” for “lungs”, “days by H and E staining based assay” for “days”; assay type: functional, organism-based
Cell membrane [26] = assay: Induction of cell membrane damage in methicillin-resistant Staphylococcus aureus ATCC 43300 assessed as increase in green fluorescence at MIC measured after 1 hr incubation by SYTO9 confocal microscopy; assay type: subcellular
Klebsiella pneumoniae [27] = assay: In vivo antibacterial activity against Klebsiella pneumoniae ATCC 13883 induced bacterial pneumonia mouse model assessed as reduction in bacterial infection induced IL-1beta mRNA expression in lung tissue at 4 mg/kg, injected into trachea after 24 hrs of infection measured after 3 to 7 days; assay type: functional, organism-based
Klebsiella pneumoniae [28] = assay: Antibiofilm activity in Klebsiella pneumoniae ATCC 13883 assessed as reduction in biofilm formation at 4.6 ug/ml measured after 24 hrs by crystal violet staining based assay relative to control; assay type: functional; parameters: scale not given: the % may be the effect or the level left; conditions: dose 4.6 µg/ml
Klebsiella pneumoniae [29] = assay: In vivo antibacterial activity against Klebsiella pneumoniae ATCC 13883 induced bacterial pneumonia mouse model assessed as reduction in bacterial infection induced IL-6 mRNA expression in lung tissue at 4 mg/kg, injected into trachea after 24 hrs of infection measured after 3 to 7 days; assay type: functional, organism-based
Staphylococcus aureus [30] = assay: Antibiofilm activity in methicillin-resistant Staphylococcus aureus ATCC 43300 assessed as reduction in biofilm formation at 4.6 ug/ml measured after 24 hrs by crystal violet staining based assay relative to control; assay type: functional; parameters: scale not given: the % may be the effect or the level left; conditions: dose 4.6 µg/ml

With `CC(=O)N[C@@H](CCCCN)C(=O)N[C@@H](CCCCN)C(=O)N[C@@H](CCCNC(=N)N)C(=O)N[C@H](C(=O)N[C@@H](CCCCN)C(=O)N[C@@H](CCCCN)C(=O)N[C@@H](CCCNC(=N)N)C(=O)N[C@@]1(C)CCC/C=C\CCC[C@@](C)(C(=O)N[C@@H](CCCCN)C(=O)N[C@@]2(C)CCC/C=C\CCC[C@@](C)(C(=O)N[C@@H](CC(C)C)C(=O)N[C@@H](CCCCN)C(=O)N[C@@H](CCCCN)C(=O)N3CCC[C@H]3C(=O)N[C@H](C(=O)N[C@@H](CCCNC(=N)N[C@@H]3O[C@H](CO)[C@@H](O[C@@H]4O[C@H](CO)[C@H](O)[C@H](O)[C@H]4O)[C@H](O)[C@H]3O)C(N)=O)C(C)C)NC(=O)[C@H](CCCNC(=N)N)NC(=O)[C@H](Cc3c[nH]c4ccccc34)NC(=O)[C@H](Cc3ccc(O)cc3)NC2=O)NC(=O)[C@H](CC(C)C)NC(=O)[C@H](CCCCN)NC(=O)[C@H](Cc2ccccc2)NC1=O)C(C)C` (Ac-KKRVKKR[S5]FKL[S5]K[S5]YWR[S5]LKKPV[Arg(Nω-βLac)]-NH2; staple (Z) 8-12, 14-18) the Activity (Staphylococcus aureus [1]) was “Active”, the MIC (Klebsiella pneumoniae [2]) was 1.1 µg/mL (≈ 0.31 µM) and the Activity (Klebsiella pneumoniae [3]) was “Active; Compound Showed Superior Therapeutic Effect Than Slp-0”. For the same molecule, the Activity (Staphylococcus aureus [4]) was “Active”, the Activity (Klebsiella pneumoniae [5]) was “Active” and the Activity (Staphylococcus aureus [6]) was “Active”. The Activity (Klebsiella pneumoniae [7]) was “Active”, the Activity (Klebsiella pneumoniae [8]) was “Active; Compound Showed Superior Therapeutic Effect Than Slp-0” and the MIC (Staphylococcus aureus [9]) was 1.1 µg/mL (≈ 0.31 µM). For the same molecule, the Activity (Klebsiella pneumoniae [10]) was “Active”, the Activity (Cell membrane [11]) was “Active” and the Activity (Cell membrane [12]) was “Active; Compound Exhibited Brighter Red”. For the same molecule, the MIC (Pseudomonas aeruginosa) was 1.1 µg/mL (≈ 0.31 µM), the Activity (Klebsiella pneumoniae [13]) was “Active” and the Activity (Klebsiella pneumoniae [14]) was “Active”. The Activity (Klebsiella pneumoniae [15]) was “Active”, the Activity (Staphylococcus aureus [16]) was “Active” and the Activity [17] was “Toxic”. For the same molecule, the Activity (Cell membrane [18]) was “Active”, the Activity (Klebsiella pneumoniae [19]) was “Active” and the Activity (Klebsiella pneumoniae [20]) was “Active”. For the same molecule, the Activity (Klebsiella pneumoniae [21]) was “Active”, the Activity (Staphylococcus aureus [22]) was “Active; Model Group Showed Yellowish Compared With The Wounds Treated With Compound” and the Activity (Cell membrane [23]) was “Active”. For the same molecule, the Activity (Cell membrane [24]) was “Active”, the Activity (Klebsiella pneumoniae [25]) was “Active” and the Activity (Cell membrane [26]) was “Active”. The Activity (Klebsiella pneumoniae [27]) was “Active”, the Activity (Klebsiella pneumoniae [28]) was 98.18% and the Activity (Klebsiella pneumoniae [29]) was “Active”. The Activity (Staphylococcus aureus [30]) was 80.13%.
